Marks after values point to notes of the source that are not given here.
System: chicken embryos
Test: Metabolic profiling of allantoic fluid (GC-MS, LC-MS, OPLS-DA)
Assay type: in vivo, Gallus gallus domesticus
Conditions: for Mean concentration relative to control, feature Win004_C08 / Mean concentration relative to control, feature Win005_C07 / Mean concentration relative to control, feature Win008_C06 / Mean concentration relative to control, feature Win022_C01 / Mean concentration relative to control, feature Win023_C06 / Mean concentration relative to control, feature win006_C01 / Mean concentration relative to control, feature Win008_C07 / Mean concentration relative to control, feature Win023_C03 / Mean concentration relative to control, feature Win007_C09 / Mean concentration relative to control, feature Win008_C05 / Mean concentration relative to control, feature Win018_C04 / Mean concentration relative to control, feature Win007_C03 / Mean concentration relative to control, feature Win042_C02 / Mean concentration relative to control, feature Win009_C03 / Mean concentration relative to control, feature Win008_C04 / Mean concentration relative to control, feature Win005_C03 / Mean concentration relative to control, feature Win013_C05: GC; for Mean concentration relative to control, feature Win008_C07: tentative 1-Aminocyclopropanecarboxylic acid; for Mean concentration relative to control, feature Win023_C03: tentative 2-Oxoglutaric acid; for Mean concentration relative to control, feature Win007_C09 / Mean concentration relative to control, feature Win008_C05: tentative 2-Oxovaleric acid; for Mean concentration relative to control, feature Win018_C04: tentative 3-Amino-2-piperidone; for Mean concentration relative to control, feature Win007_C03: tentative 3-Hydroxybutanoic acid; for Mean concentration relative to control, feature Win042_C02: tentative Cystathionine; for Mean concentration relative to control, feature Win009_C03: tentative Ketoleucine; for Mean concentration relative to control, feature Win008_C04: tentative Malonic acid; for Mean concentration relative to control, feature Win005_C03: tentative Oxalic acid; for Mean concentration relative to control, feature Win013_C05: tentative Succinic acid
Experimental: Controls were injected with 20 μL vehicle only (DMSO).
Plasma was collected and stored at -70°C.
Metabolites in allantoic fluid and blood plasma were analyzed using gas chromatography-mass spectrometry (GC-MS) and liquid chromatography-mass spectrometry (LC-MS) as described in S1 Methods. Prior to GC-MS and LC-MS analysis, allantoic fluid (100 μL) and blood plasma (50 μL) were extracted. To each sample, 900 μL (allantoic fluid) or 450 μL (blood plasma) of extraction buffer (90/10 v/v methanol:water) including all internal standards were added. Standards for GC-MS were proline, succinic acid, glutamic acid, salicylic acid, alpha-ketoglutarate, putrescine, myristic acid, hexadecanoic acid, cholesterol, and sucrose. Standards for LC-MS were Val-Tyr-Val, Leu-enkephalin, sulfadimethoxine and reserpine. Samples were homogenized by shaking in a bead mill at a frequency of 30 Hz for 3 minutes and proteins were precipitated at +4°C on ice. The samples were centrifuged at +4°C, 14000 rpm, for 10 min. Then, 200 μL supernatant was transferred to a GC microvial and 200 μL was transferred to an LC microvial, and solvents were evaporated. Samples from the four replicate experiments were analyzed using in chronological order and within each replicate experiment the run order of the individual samples was randomized.
Multivariate statistical analyses of metabolite profiles were performed using the software package SIMCA-P version 13.0 (Umetrics, Umeå, Sweden). Data was centered and scaled to variance 1 (UV scaling) prior to modelling. To reduce unintended systematic variation caused by sample processing and instrument drift, GC-MS and LC-MS metabolite amounts (expressed as the area under the chromatographic peak) were normalized by Orthogonal Partial Least Squares analysis (O2PLS) prior to multivariate data analysis. O2PLS finds common (predictive) and unique (orthogonal) variation in two data matrices. If applied to find the common variation between the data matrix containing the measured metabolite concentrations and a matrix containing only the internal standards, the only common (predictive) variation expected is due to the unintended systematic variation. By deleting the contribution of the predictive latent variables, that variation can be removed from the data. Models obtained after this normalization contain in general less latent variables, and this simplification helps when deciding on the number of latent variables to be used. Following normalization, GC-MS and LC-MS data were analyzed together. Initially, a global Principal Component Analysis (PCA) was performed to get an overview of groups and trends and to identify outliers. Projections to latent structures by means of Orthogonal Partial Least Squares Discriminant Analysis (OPLS-DA) was used to model the relationship between the X-matrix (metabolite concentrations) and the Y matrix (class, i.e. exposure group or sex), and to find x-variables that were related to class belonging. OPLS-DA is a supervised prediction and regression method that rotates the projection plane to find the maximum covariance between the data and the class assignment. All groups were first analyzed together in a 5-class OPLS-DA and then each exposure group was analyzed against the control group in a 2-class OPLS-DA. Sex differences were analyzed both using the whole data set and in each group separately using 2-class OPLS-DA, with females and males as the two classes. Only variables with 80% or more nonzero values were included in the statistical models. […] The validity of each model was also checked using CV-ANOVA (ANOVA of the cross-validated residuals). A significance level of p < 0.05 was used. For each model, R ^2 X, R ^2 Y and Q ^2 values were calculated, where R ^2 X is a measure of the fraction of x variation modeled in the extracted latent variables, R ^2 Y is a measure of the fraction of y variation modeled and Q ^2 is an estimate of the predictive ability of the model and is calculated by cross-validation. […]

O=C(O)C(F)(F)C(F)(F)C(F)(F)C(F)(F)C(F)(F)C(F)(F)C(F)(F)F [PFOA, perfluorooctanoic acid]
Mean concentration relative to control, feature Win004_C08 (PFOA 50 μg/egg): 1.0 | Mean concentration relative to control, feature Win005_C07 (PFOA 50 μg/egg): 1.0 | Mean concentration relative to control, feature Win008_C06 (PFOA 50 μg/egg): 1.0 | Mean concentration relative to control, feature Win022_C01 (PFOA 50 μg/egg): 1.0 | Mean concentration relative to control, feature Win023_C06 (PFOA 50 μg/egg): 0.8 | Mean concentration relative to control, feature win006_C01 (PFOA 50 μg/egg): 1.0 | Mean concentration relative to control, feature Win008_C07 (PFOA 50 μg/egg): 1.1 | Mean concentration relative to control, feature Win023_C03 (PFOA 50 μg/egg): 1.0 | Mean concentration relative to control, feature Win007_C09 (PFOA 50 μg/egg): 1.0 | Mean concentration relative to control, feature Win008_C05 (PFOA 50 μg/egg): 1.0 | Mean concentration relative to control, feature Win018_C04 (PFOA 50 μg/egg): 1.0 | Mean concentration relative to control, feature Win007_C03 (PFOA 50 μg/egg): 1.0 | Mean concentration relative to control, feature Win042_C02 (PFOA 50 μg/egg): 1.1 | Mean concentration relative to control, feature Win009_C03 (PFOA 50 μg/egg): 0.9 | Mean concentration relative to control, feature Win008_C04 (PFOA 50 μg/egg): 1.1 | Mean concentration relative to control, feature Win005_C03 (PFOA 50 μg/egg): 0.9 | Mean concentration relative to control, feature Win013_C05 (PFOA 50 μg/egg): 1.0 | Mean concentration relative to control, feature Win004_C08 (PFOA 250 μg/egg): 1.0 | Mean concentration relative to control, feature Win005_C07 (PFOA 250 μg/egg): 1.0 | Mean concentration relative to control, feature Win008_C06 (PFOA 250 μg/egg): 1.2 | Mean concentration relative to control, feature Win022_C01 (PFOA 250 μg/egg): 1.1 | Mean concentration relative to control, feature Win023_C06 (PFOA 250 μg/egg): 1.1 | Mean concentration relative to control, feature win006_C01 (PFOA 250 μg/egg): 1.0 | Mean concentration relative to control, feature Win008_C07 (PFOA 250 μg/egg): 1.0 | Mean concentration relative to control, feature Win023_C03 (PFOA 250 μg/egg): 1.1 | Mean concentration relative to control, feature Win007_C09 (PFOA 250 μg/egg): 1.0 | Mean concentration relative to control, feature Win008_C05 (PFOA 250 μg/egg): 1.0 | Mean concentration relative to control, feature Win018_C04 (PFOA 250 μg/egg): 1.1 | Mean concentration relative to control, feature Win007_C03 (PFOA 250 μg/egg): 1.0 | Mean concentration relative to control, feature Win042_C02 (PFOA 250 μg/egg): 1.3 | Mean concentration relative to control, feature Win009_C03 (PFOA 250 μg/egg): 1.0 | Mean concentration relative to control, feature Win008_C04 (PFOA 250 μg/egg): 1.1 | Mean concentration relative to control, feature Win005_C03 (PFOA 250 μg/egg): 0.9 | Mean concentration relative to control, feature Win013_C05 (PFOA 250 μg/egg): 1.1 | Mean concentration relative to control, feature 134.0239@1.1350567 (LC, PFOA 50 μg/egg): 1.2 | Mean concentration relative to control, feature 145.0538@3.072527 (LC, PFOA 50 μg/egg): 1.0 | Mean concentration relative to control, feature 147.0328@3.0722888 (LC, PFOA 50 μg/egg): 1.0 | Mean concentration relative to control, feature 160.0323@1.1950632 (LC, PFOA 50 μg/egg): 1.0 | Mean concentration relative to control, feature 173.0488@3.0734746 (LC, PFOA 50 μg/egg): 1.0 | Mean concentration relative to control, feature 176.0952@1.3890611 (LC, PFOA 50 μg/egg): 0.6* | Mean concentration relative to control, feature 178.0428@1.7582192 (LC, PFOA 50 μg/egg): 0.9 | Mean concentration relative to control, feature 180.0048@4.421465 (LC, PFOA 50 μg/egg): 1.0 | Mean concentration relative to control, feature 189.1159@1.9209185 (LC, PFOA 50 μg/egg): 0.9

Reference: publication PMC4666608, “Metabolic Profiling of Chicken Embryos Exposed to Perfluorooctanoic Acid (PFOA) and Agonists to Peroxisome Proliferator-Activated Receptors” (PLoS ONE, 2015)
